# US11229636B2, “Substituted tetrahydroquinolinone compounds as ROR gamma modulators” (Aurigene Discovery Technologies Limited, priority 2015, dated 2022)
# Experiments:
# RORγ LBD = RORγ LBD (Homo sapiens (Human), UniProt P51449); assay: ROR gamma radio-ligand binding assay (3H 25-Hydroxycholesterol competitive displacement, dextran charcoal method); details: for RORγ ligand binding assay: % inhibition @1 μM / inhibition at 1 µM: 1 μM compound; for RORγ ligand binding assay: % inhibition @ 10 μM / inhibition at 10 µM: 10 μM compound; for IC50: in range
# RORγ LBD, sequence (P51449 268-518): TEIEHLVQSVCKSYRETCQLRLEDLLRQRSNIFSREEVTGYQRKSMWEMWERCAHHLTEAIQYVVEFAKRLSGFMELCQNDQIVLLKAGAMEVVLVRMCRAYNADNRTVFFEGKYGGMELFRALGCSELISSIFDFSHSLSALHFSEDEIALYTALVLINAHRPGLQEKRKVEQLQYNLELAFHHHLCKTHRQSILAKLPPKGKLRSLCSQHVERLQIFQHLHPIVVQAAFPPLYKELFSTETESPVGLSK
# Description: Gene corresponding to the ligand binding domain of RORγ (247-497 amino acids) was sub-cloned into pGEX4T1 vector. Transformants of E. coli BL21 (DE3) containing pGEX4T1-RORγ (247-497) were grown to an OD of 0.8 at 37° C. and induced with 0.5 mM isopropyl-β-D-thiogalactopyranoside (IPTG) for 18 hours at 18° C. Cells were harvested and resuspended in 20 mM Tris-HCl (pH 8.5), 0.3 M NaCl, 10% Glycerol, 2 mM β-Me (β-Mercaptoethanol), 2 mM CHAPS, protease inhibitors, 0.6 mM PMSF and Lysozyme. Supernatant of lysate was passed through glutathione sepharose 4B affinity beads (GE health care) pre-equilibrated with 20 mM Tris-HCl (pH 8.5), 0.3 M NaCl, 10% Glycerol, 2 mM β-Me. RORγ was eluted using a gradient of reduced glutathione (3-20 mM). Fractions containing RORγ protein were pooled, concentrated and passed through Superdex 75 gel filtration (GE health care) column equilibrated with 20 mM Na-phosphate pH 8.0, 0.2 M NaCl, 10% glycerol. The peak fractions from gel filtration column were pooled and stored at −80° C. for Binding assay.
# ROR gamma radioligand binding was performed using ^3H 25-Hydroxycholesterol in a competitive displacement assay using dextran charcoal method. Using 5 nM ^3H 25-Hydroxycholesterol with 300 ng RORγ LBD (in house expressed in E. coli) along with the compound were incubated in the binding buffer (50 mM HEPES, pH 7.5, 150 mM NaCl, 0.01% BSA and 5 mM MgCl2) for 30 min at room temperature. Then dextran-charcoal mixture (0.5% charcoal: 0.05% dextran) was used for separation and the supernatant was read on the Perkin Elmer Trilux Microbeta counter. Dose response curves were generated for 10 compound concentrations using GraphPad Prism software Version 5 (San Diego, Calif., USA) using non-linear regression curve fit for sigmoidal dose response (variable slope).
# [1] = target: ROR gamma ligand binding domain (Homo sapiens (Human), UniProt P51449); assay: ROR gamma luciferase reporter assay (GAL4-ROR gamma LBD, HEK293 cells); type: cell-based; details: 48 hours treatment, read-out: RORγ luciferase Reporter assay: IC50 (nM) (in range)
# ROR gamma ligand binding domain, sequence (P51449 269-508): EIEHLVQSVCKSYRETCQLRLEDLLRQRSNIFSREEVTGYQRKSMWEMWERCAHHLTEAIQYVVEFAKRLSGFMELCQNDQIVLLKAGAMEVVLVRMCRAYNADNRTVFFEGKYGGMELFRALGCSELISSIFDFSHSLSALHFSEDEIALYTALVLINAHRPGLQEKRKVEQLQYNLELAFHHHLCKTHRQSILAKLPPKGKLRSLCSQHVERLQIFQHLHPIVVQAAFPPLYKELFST
# Description: The Ligand Binding Domain (LBD) of ROR gamma was cloned into pFN26A (BIND) hRluc-neo Flexi vector (Promega) which expresses a fusion protein comprised of a DNA binding domain of the yeast GAL4 gene, a linker segment and ROR gamma ligand binding domain. For the reporter assay 0.02×10^6 HEK293 cells were seeded per well in a 96 well plate in complete media and incubated overnight in an incubator with 5% CO2 at 37° C. before transfection. Cells were then co-transfected with pFN26A hRluc-neo Flexi vector containing the LBD of ROR gamma and pGL4.35 [luc2P/9XGAL4 UAS/Hygro] Vector (Promega) in low serum media. Post transfection and recovery, cells were treated with the test compounds for 48 hours. The assay was terminated using the Bright-Glo Luciferase assay system from Promega and the Luminescence was measured using a luminescence reader. The luminescence values were used to calculate the potency of the compounds.
Compound,RORγ ligand binding assay: % inhibition @1 μM (RORγ LBD),RORγ ligand binding assay: % inhibition @ 10 μM (RORγ LBD),IC50 (RORγ LBD),IC50 [1],inhibition at 1 µM (RORγ LBD),inhibition at 10 µM (RORγ LBD)
"CCS(=O)(=O)c1ccc(CC(=O)Nc2ccc3c(n2)CCC(C)(c2cc(C)nc(C)n2)C3=O)cc1 (single isomer, unassigned) [compound 103, N-(6-(2,6-dimethylpyrimidin-4-yl)-6-methyl-5-oxo-5,6,7,8-tetrahydroquinolin-2-yl)-2-(4-(ethylsulfonyl)phenyl)acetamide]",26%,0%,,> 500 nM,,
"CCS(=O)(=O)c1ccc(CC(=O)Nc2ccc3c(n2)CCC(C)(c2nccn4cc(C)nc24)C3=O)cc1 (single isomer, unassigned) [compound 106, 2-(4-(ethylsulfonyl)phenyl)-N-(6-methyl-6-(2-methylimidazo[1,2-a]pyrazin-8-yl)-5-oxo-5,6,7,8-tetrahydroquinolin-2-yl)acetamide]",70%,1%,,> 500 nM,,
"CCS(=O)(=O)c1ccc(CC(=O)Nc2cc(C)c3c(n2)CCC(C)(c2cc(C)nc(C)n2)C3=O)cc1 (single isomer, unassigned) [compound 108, N-(6-(2,6-dimethylpyrimidin-4-yl)-4,6-dimethyl-5-oxo-5,6,7,8-tetrahydroquinolin-2-yl)-2-(4-(ethylsulfonyl)phenyl)acetamide]",78%,28%,> 300 nM,> 500 nM,,
"CCS(=O)(=O)c1ccc(CC(=O)Nc2cc(C)c3c(n2)CCC(C)(c2ccc(OC)nn2)C3=O)cc1 (single isomer, unassigned) [compound 109, 2-(4-(ethylsulfonyl)phenyl)-N-(6-(6-methoxypyridazin-3-yl)-4,6-dimethyl-5-oxo-5,6,7,8-tetrahydroquinolin-2-yl)acetamide]",,36%,,> 500 nM,91%,
"CCS(=O)(=O)c1ccc(CC(=O)Nc2ccc3c(n2)CCC(C)(c2ncc(OC)cn2)C3=O)cc1 (single isomer, unassigned) [compound 111, 2-(4-(ethylsulfonyl)phenyl)-N-(6-(5-methoxypyrimidin-2-yl)-6-methyl-5-oxo-5,6,7,8-tetrahydroquinolin-2-yl)acetamide]",62%,19%,> 300 nM,> 500 nM,,
"CCS(=O)(=O)c1ccc(CC(=O)Nc2ccc3c(n2)CCC(C)(c2ccc(Cl)nn2)C3=O)cc1 (stereo not shown) [Compound 93, N-(6-(6-chloropyridazin-3-yl)-6-methyl-5-oxo-5,6,7,8-tetrahydroquinolin-2-yl)-2-(4-(ethylsulfonyl)phenyl)acetamide]",,,,> 500 nM,,
"CCS(=O)(=O)c1ccc(CC(=O)Nc2cc(C)c3c(n2)CCC(C)(c2ccc(OC)[n+]([O-])n2)C3=O)cc1 (stereo not shown) [Compound 94, 3-(2-(2-(4-(ethylsulfonyl)phenyl)acetamido)-4,6-dimethyl-5-oxo-5,6,7,8-tetrahydroquinolin-6-yl)-6-methoxypyridazine 1-oxide]",,,,> 500 nM,,
"CCS(=O)(=O)c1ccc(CC(=O)Nc2cc(C)c3c(n2)CCC(C)(c2nnc(OC)cc2C)C3=O)cc1 (stereo not shown) [Compound 95, 2-(4-(ethylsulfonyl)phenyl)-N-(6-(6-methoxy-4-methylpyridazin-3-yl)-4,6-dimethyl-5-oxo-5,6,7,8-tetrahydroquinolin-2-yl)acetamide]",,,,> 500 nM,,
"CCS(=O)(=O)c1ccc(CC(=O)Nc2cc(C)c3c(n2)CCC(C)(c2cc(C)c(OC)nn2)C3=O)cc1 (stereo not shown) [Compound 96, 2-(4-(ethylsulfonyl)phenyl)-N-(6-(6-methoxy-5-methylpyridazin-3-yl)-4,6-dimethyl-5-oxo-5,6,7,8-tetrahydroquinolin-2-yl)acetamide]",,,,100 to 500 nM,,
"CCS(=O)(=O)c1ccc(CC(=O)Nc2ccc3c(n2)CCC(C)(c2nccn4c(F)cnc24)C3=O)cc1 (stereo not shown) [Compound 97, 2-(4-(ethylsulfonyl)phenyl)-N-(6-(3-fluoroimidazo[1,2-a]pyrazin-8-yl)-6-methyl-5-oxo-5,6,7,8-tetrahydroquinolin-2-yl)acetamide]",,,,> 500 nM,,
"CCS(=O)(=O)c1ccc(CC(=O)Nc2cc(C)c3c(n2)CCC(C)(c2ccc(N(C)C)nn2)C3=O)cc1 (stereo not shown) [Compound 98, N-(6-(6-(dimethylamino)pyridazin-3-yl)-4,6-dimethyl-5-oxo-5,6,7,8-tetrahydroquinolin-2-yl)-2-(4-(ethylsulfonyl)phenyl)acetamide]",,,,100 to 500 nM,,
"CCS(=O)(=O)c1ccc(CNC(=O)c2cc3c(cn2)C(=O)C(C)(c2cc(C)nc(C)n2)CC3)cc1 (stereo not shown) [Compound-134, 7-(2,6-dimethylpyrimidin-4-yl)-N-(4-(ethylsulfonyl)benzyl)-7-methyl-8-oxo-5,6,7,8-tetrahydroisoquinoline-3-carboxamide]",,,,100 to 500 nM,,

# Continued, values first:
RORγ ligand binding assay: % inhibition @1 μM (RORγ LBD),RORγ ligand binding assay: % inhibition @ 10 μM (RORγ LBD),IC50 (RORγ LBD),IC50 [1],inhibition at 1 µM (RORγ LBD),inhibition at 10 µM (RORγ LBD),Compound
100%,97%,< 150 nM,< 100 nM,,,"CCS(=O)(=O)c1ccc(CC(=O)Nc2ccc3c(n2)CCC(C)(c2nccn4cc(C)nc24)C3=O)cc1 (single isomer, unassigned) [Compound-105, 2-(4-(ethylsulfonyl)phenyl)-N-(6-methyl-6-(2-methylimidazo[1,2-a]pyrazin-8-yl)-5-oxo-5,6,7,8-tetrahydroquinolin-2-yl)acetamide]"
94%,88%,< 150 nM,100 to 500 nM,,,"CCS(=O)(=O)c1ccc(CC(=O)Nc2ccc3c(n2)CCC(C)(c2cc(C)nc(C)n2)C3=O)cc1 (single isomer, unassigned) [compound 104, N-(6-(2,6-dimethylpyrimidin-4-yl)-6-methyl-5-oxo-5,6,7,8-tetrahydroquinolin-2-yl)-2-(4-(ethylsulfonyl)phenyl)acetamide]"
,90%,< 150 nM,100 to 500 nM,91%,,"CCS(=O)(=O)c1ccc(CC(=O)Nc2cc(C)c3c(n2)CCC(C)(c2cc(C)nc(C)n2)C3=O)cc1 (single isomer, unassigned) [compound 107, N-(6-(2,6-dimethylpyrimidin-4-yl)-4,6-dimethyl-5-oxo-5,6,7,8-tetrahydroquinolin-2-yl)-2-(4-(ethylsulfonyl)phenyl)acetamide]"
100%,81%,,< 100 nM,,,"CCS(=O)(=O)c1ccc(CC(=O)Nc2cc(C)c3c(n2)CCC(C)(c2ccc(OC)nn2)C3=O)cc1 (single isomer, unassigned) [compound 110, 2-(4-(ethylsulfonyl)phenyl)-N-(6-(6-methoxypyridazin-3-yl)-4,6-dimethyl-5-oxo-5,6,7,8-tetrahydroquinolin-2-yl)acetamide]"
100%,73%,< 150 nM,100 to 500 nM,,,"CCS(=O)(=O)c1ccc(CC(=O)Nc2ccc3c(n2)CCC(C)(c2ncc(OC)cn2)C3=O)cc1 (single isomer, unassigned) [compound 112, 2-(4-(ethylsulfonyl)phenyl)-N-(6-(5-methoxypyrimidin-2-yl)-6-methyl-5-oxo-5,6,7,8-tetrahydroquinolin-2-yl)acetamide]"
,,< 150 nM,100 to 500 nM,84%,89%,"CCS(=O)(=O)c1ccc(CC(=O)Nc2ccc3c(n2)CCC(C)(c2ccc(OC)nc2)C3=O)cc1 (stereo not shown) [Compound 2, 2-(4-(ethylsulfonyl)phenyl)-N-(6-(6-methoxypyridin-3-yl)-6-methyl-5-oxo-5,6,7,8-tetrahydroquinolin-2-yl)acetamide]"
,,150 to 300 nM,100 to 500 nM,72%,96%,"CCS(=O)(=O)c1ccc(CC(=O)Nc2ccc3c(n2)CCC(C)(c2nccn4ccnc24)C3=O)cc1 (stereo not shown) [Compound 6, 2-(4-(ethylsulfonyl)phenyl)-N-(6-(imidazo[1,2-a]pyrazin-8-yl)-6-methyl-5-oxo-5,6,7,8-tetrahydroquinolin-2-yl)acetamide]"
,,,100 to 500 nM,,,"CCS(=O)(=O)c1ccc(CC(=O)Nc2cc3c(cn2)C(=O)C(C)(c2cc(C)nc(C)n2)CC3)cc1 (stereo not shown) [Compound 83, N-(7-(2,6-dimethylpyrimidin-4-yl)-7-methyl-8-oxo-5,6,7,8-tetrahydroisoquinolin-3-yl)-2-(4-(ethylsulfonyl)phenyl)acetamide]"
